The results in this text go back to patent publication US8734863B2, “Bioactive fraction of Petiveria alliacea, pharmaceutical composition containing same, and combination with immunostimulants for treating cancer” (Pontificia Universidad Javeriana, priority 2009, dated 2014).

One data set deals with tumor cell line A375. Nature of the data set: Cell cycle distribution, propidium iodide flow cytometry. To be noted: A375, F4 at 31.2 μg/mL; 18% in no treatment cells. The class given is cell-based, human. As to the method: After treatment, cells were washed and fixed with ethanol (ice-cold 70%) during 18 h. After fixing, cells were suspended in PBS 1×, 100 U/ml RNase, 50 μg/ml of propidium iodide (Sigma, St. Louis, Mo.) and incubated at room temperature for 30 min. Cell DNA content was measured by flow cytometry using a FACScalibur, (Becton Dickinson, Fullerton, Calif. For cytometric data 50,000 cellular events were collected per sample and analyzed with Cell Quest software (Becton Dickinson). Cell cycle distribution percentages are calculated by Modfit LT software. FACScalibur calibration is performed with the DNA QC Particle Kit (Becton Dickinson).

Data set [1] relates to human peripheral blood mononuclear cells (PBMC). Nature of the data set: Growth of human mononuclear cells, MTT. To be noted: PBMC with or without phytohemagglutinin, 30 h, F4 250 to 1.9 μg/ml. The class given is cell-based. The protocol: For assays in normal cells, human peripheral blood mononuclear cells (PBMC) from healthy volunteers were separated by density gradient centrifugation (Ficoll-Hypaque, Amersham, Biosciences). PBMC were suspended in RPMI-1640 supplemented medium (10% FBS, 2 mM L-glutamine, 100 U/ml penicillin, 100 μg/ml streptomycin, 0.01 M Hepes) and incubated under humidified environment at 37° C. and 5% CO2.
Human PBMC were seeded (2×10^5 cells/well) on 96-well plates and incubated with or without phytohemagglutinin (PHA, GibcoBRL) for 12 h. Afterwards, PBMC were treated with F4 fraction (250 to 1.9 μg/ml), or vincristine for 30 h. After treatment cells were centrifuged, F4 fraction removed and lastly cells were carefully washed 3 times (PBS) before adding the MTT. Next 12 μl of MTT 12 mM [3-(4,5-dimethylthiazol-2-yl)-2,5-diphenyl tetrazolium bromide] (Molecular Probes, Eugene, Oreg., USA) in PBS was added to each well and incubated for 4 h at 37° C. Formazan crystals were dissolved with SDS-HCl 0.01M. MTT results were read at 540 nm in a Multiskan MCC/340 (LabSystems).

In the next data set the test system is tumour cell line NB4. The data set is described as follows: Chromatin condensation and nuclear fragmentation, hematoxylin-eosine and DAPI staining. The class given is cell-based, human. To be noted: NB4, 24 h; S3 at 31.2 μg/mL. As to the method: Hematoxylin-eosine and DAPI (4′,6-diamidino-2-phenylindole, Sigma) stained cells were monitored under microscope to evaluated the type of cell death induced by the S3 fraction. In brief, cells treated with S3 fraction for 24 h at 37° C. under humidified atmosphere and 5% CO2, were plated onto microscope slides by cytocentrifugation (Vybra cytospin, Japan) for 5 min at 500 rpm, fixed with ethanol and stained with hematoxylin (2 min) and eosin (45 seconds). Excess dye was removed with ethanol (3 washes) and microscope slides were monitored and photographed under a light microscope (Olympus CH30, Japan) at a magnification of 100×. For DAPI staining, cells plated on glass cover slides (13 mm/-E) previously collagen-precoated (6-10 μg/cm2) at a density of 5×10^4 cells for 16 h, were treated with S3 fraction at 37° C. under humidified atmosphere and 5% CO2 for 24 h. Subsequently, cells were washed (PBS) and fixed with paraformaldehyde (2% in PBS) for 30 min at 4° C. After washing twice with PBS-BSA (1%), cells were incubated in cold acetone (1 min); washed (1% PBS-BSA) and incubated for 5 min with DAPI 300 nM (Sigma, St. Louis, Mo.). Slides with prolong antifade kit (Molecular Probes) were observed under a fluorescence microscope (Olympus, Japan).

As for `CC[C@]1(O)C[C@H]2CN(CCc3c([nH]c4ccccc34)[C@@](C(=O)OC)(c3cc4c(cc3OC)N(C=O)[C@H]3[C@@](O)(C(=O)OC)[C@H](OC(C)=O)[C@]5(CC)C=CCN6CC[C@]43[C@@H]65)C2)C1` [vincristine], the G2 phase accumulation in the data set with tumor cell line A375 is reported as about 80%. In data set [1], the “effect over growth of normal mononuclear cells” value was “lack of effect”.

Regarding `CN[C@@H]1C[C@H]2O[C@@](C)([C@@H]1OC)n1c3ccccc3c3c4c(c5c6ccccc6n2c5c31)C(=O)NC4` [staurosporine], in the data set with tumour cell line NB4, the “type of cell death, hematoxylin-eosine staining” value is “nuclear fragmentation and DNA fragmentation”.
